Laboratory results taken from patent publication US7276532B2, “Remedies for vesical hyperactivity” (Kyowa Hakko Kogyo Co., Ltd., priority 2001, dated 2007).

How the values were obtained:
spinal cord-injured rats = experiment: Inhibitory activity on detrusor hyperreflexia (cystometry test); format: in vivo, rat; conditions: average ± standard error
Protocol: The experiment was carried out according to the method of Cheng, et al. [Brain Res., Vol. 678, pp. 40-48 (1995)].
(§1) Female SD rats of 8 to 10 weeks of age (supplied by Japan SLC) were used in the test. Five to seven animals of these rats were put in each metal cage and reared by allowing them to freely take commercially available chow and water, in an animal room at room temperature between 19 and 25° C. and humidity between 30 and 70% under illumination for 12 hours (from 7:00 a.m. to 7:00 p.m.) per day.
An operation of spinal cord injury was performed in the rats. Each animal was anesthetized with diethyl ether and the skin of the back side thoracic cord part was incised. A laminectomy at the 7th to 8th thoracic vertebrae level was performed. Then, the thoracic cord at the T7-T8 segments was macroscopically cut and a section of spinal cord (about 5 mm) was removed, and the wound cavity of the removed part was filled with oxidized regenerated cellulose for hemostasis. The incised part was sutured with a surgical silk. After the spinal cord injury operation, urine was expressed manually twice per day (at 8:00-9:00 and 18:00-19:00) for about 3 weeks until autonomic micturition developed. An antibiotic (ampicillin, Sigma. Chemical Co.) was intramuscularly administered to the animals at a dose of 150 mg/kg once to twice per day for about 2 weeks.
(§2) Four to five weeks after the spinal cord injury, the rats were subjected to bladder catheterization. Under diethyl ether anesthesia, the bladder was exposed by midline incision of the abdomen. […] The bladder catheter was fixed with a surgical silk ligature and indwelled. The other end of the catheter was exposed subcutaneously from the back of the neck, plugged and then fixed to the skin with a surgical thread.
Four to six days after the bladder catheterization, a cystometry test was performed. The rats were put in a Bollman cage (Natsume Seisakusho Co., Ltd.) and a three-way cock was connected to the bladder catheter, one end of the cock was connected to a pressure transducer (Nihon Kohden Corp.) and the other end was connected to a 50-mL syringe (Terumo Corp.) arranged to an infusion pump (Harvard Apparatus, Inc.) for physiological saline infusion. The intravesical pressure signal from the pressure transducer was amplified with a strain pressure amplifier (AP-601G, Nihon Kohden Corp.) connected thereto, and was recorded on a thermal array recorder (RTA-1200, Nihon Kohden Corp.) via a polygraph system (RMP-6008, Nihon Kohden Corp.) containing the above amplifier. Sixty to ninety minutes after the completion of the preparation for the measurement, a room temperature physiological saline was infused into the bladder at a flow rate of 10 mL/h for 30 minutes, the occurence of micturition contractions was confirmed. Thirty minutes later, the infusion of physiological saline was carried out again for 30 minutes, and the intravesical pressure was measured to be used as the pre-administration value. Each of Compounds 1 to 6 was suspended in a 0.5 w/v % aqueous solution of methylcellulose at a concentration of 1 mg/mL suspension. The suspension was further diluted with a 0.5 w/v % aqueous solution of methylcellulose to prepare a suspension or solution for the administration at the intended concentration, which was then orally administered to the animals at a volume of 1 mL/kg. The period of 1, 3 and 5 hours after the dosing was used as the measuring time after the administration of the solvent or a compound tested, and the intravesical infusion of a physiological saline was carried out during a duration of 15 minutes around each measuring time (i.e. from 45 to 75 minutes, from 165 to 195 minutes and from 285 to 315 minutes after the administration of the compound).
Micturition contraction was measured as an index of the voiding function and pre-micturition contraction was measured as an index of detrusor hyperreflexia. […]

[1] = test system: rats with bladder hypertrophy; experiment: Inhibitory activity on detrusor instability (cystometry test after partial urethral obstruction); format: in vivo, rat; conditions: average ± standard error
Protocol: The experiment was carried out according to the method of Malmgren, et al. [J. Urol., Vol. 142, pp. 1134-1138 (1989)].
as §1, with “(7:00 a.m.-7:00” for “(from 7:00 a.m. to 7:00”
The rats were subjected to operation of partial urethral obstruction. Each animal was anesthetized by intraperitoneal administration of 50 mg/kg pentobarbital sodium (Dainippon Pharmaceutical Co., Ltd.), and the midline incision of the skin and muscle was made in the lower abdomen. A polyethylene tube (PE-20, Nippon Becton Dickinson Co., Ltd.) was inserted into urethra from the urethral to the bladder neck. After the proximal urethra was peeled and double-ligated, the polyethylene tube was pulled out to cause partial urethral obstruction. The incised part was-sutured with a surgical silk thread. An antibiotic (ampicillin, Sigma Chemical Co.) was intramusclarly administered to the animals at a dose of 150 mg/kg.
as §2, with “Six” for “Four to five”, “operation of the partial urethral obstruction,” for “spinal cord injury,”, “rats with bladder hypertrophy” for “rats”, “anesthesia with pentobarbital sodium,” for “diethyl ether anesthesia,”
Four to six days after the bladder catheterization, a cystometry test was performed. The rats were put in a Bollman cage (Natsume Seisakusho Co., Ltd.) and a three-way cock was connected to the bladder catheter, one end of the cock was connected to a pressure transducer (Nihon Kohden Corp.) and the other end was connected to a 50-mL syringe (Terumo Corp.) arranged to an infusion pump (Harvard Apparatus, Inc.) for physiological saline infusion. The intravesical pressure signal from the pressure transducer was amplified with a strain pressure amplifier (AP-601G, Nihon Kohden Corp.) connected thereto, and was recorded on a thermal array recorder (RTA-1200, Nihon Kohden Corp.) via a polygraph system (RMP-6008, Nihon Kohden Corp.) containing the above amplifier. Sixty to ninety minutes after the completion of the preparation for the measurement, intravesical infusion of a room temperature physiological saline at a flow rate of 10 mL/h was started and continued until the completion of the test, and the occurrence of micturition contractions and pre-micturition contractions were confirmed. The chart for 30 minutes after 3 hours from the commencement of the saline infusion was used as the values before the drug administration. Each of Compounds 1 to 3 was suspended in a 0.5 w/v % aqueous solution of methylcellulose at a concentration of 1 mg/mL. The suspension was further diluted with a 0.5 w/v % aqueous solution of methylcellulose to prepare a suspension or solution for the administration at the intended concentration. This was then orally administered to the animals at a volume of 1 mL/kg. The period of 1, 3 and 5 hours after the dosing was used as the measuring time after the administration of the solvent or a compound tested, and a duration of 15 minutes around each measuring time (45 to 75 minutes, 165 to 195 minutes and 285 to 315 minutes after the administration of the compound) was used as the measuring period.
Micturition contraction was used as an index of the voiding function and pre-micturition contraction was measure as an index of detrusor instability. […]

dd male mice = experiment: Acute toxicity test; format: in vivo; conditions: oral administration, mortality on the seventh day after administration
Protocol: The test compound was administered orally or intraperitoneally to 3 animals per group of dd male mice (body weight: 20±1 g). The minimum lethal dose (MLD) value was obtained by observing mortality on the seventh day after the administration calculated.

C[C@](O)(C(=O)Nc1cccc2c1C(=O)c1sccc1CS2(=O)=O)C(F)(F)F [Compound 1]
micturition contractions (relative value, before administration = 100) (spinal cord-injured rats; 0.001 mg/kg p.o., after 1 hr.): 106.5 ± 11.3% | pre-micturition contractions (relative value, before administration = 100) (spinal cord-injured rats; 0.001 mg/kg p.o., after 1 hr.): 83.5 ± 6.8% | micturition contractions (relative value, before administration = 100) (spinal cord-injured rats; 0.001 mg/kg p.o., after 3 hrs.): 101.7 ± 9.5% | pre-micturition contractions (relative value, before administration = 100) (spinal cord-injured rats; 0.001 mg/kg p.o., after 3 hrs.): 95.4 ± 12.0% | micturition contractions (relative value, before administration = 100) (spinal cord-injured rats; 0.001 mg/kg p.o., after 5 hrs.): 103.1 ± 6.5% | pre-micturition contractions (relative value, before administration = 100) (spinal cord-injured rats; 0.001 mg/kg p.o., after 5 hrs.): 105.5 ± 20.8% | micturition contractions (relative value, before administration = 100) (spinal cord-injured rats; 0.01 mg/kg p.o., after 1 hr.): 114.4 ± 9.5% | pre-micturition contractions (relative value, before administration = 100) (spinal cord-injured rats; 0.01 mg/kg p.o., after 1 hr.): 59.6 ± 8.1 % | micturition contractions (relative value, before administration = 100) (spinal cord-injured rats; 0.01 mg/kg p.o., after 3 hrs.): 117.6 ± 13.9% | pre-micturition contractions (relative value, before administration = 100) (spinal cord-injured rats; 0.01 mg/kg p.o., after 3 hrs.): 51.2 ± 6.7 % | micturition contractions (relative value, before administration = 100) (spinal cord-injured rats; 0.01 mg/kg p.o., after 5 hrs.): 117.6 ± 12.7% | pre-micturition contractions (relative value, before administration = 100) (spinal cord-injured rats; 0.01 mg/kg p.o., after 5 hrs.): 42.2 ± 7.2 % | micturition contractions (relative value, before administration = 100) (spinal cord-injured rats; 0.1 mg/kg p.o., after 1 hr.): 109.3 ± 6.3% | pre-micturition contractions (relative value, before administration = 100) (spinal cord-injured rats; 0.1 mg/kg p.o., after 1 hr.): 52.3 ± 9.1 % | micturition contractions (relative value, before administration = 100) (spinal cord-injured rats; 0.1 mg/kg p.o., after 3 hrs.): 110.2 ± 5.4% | pre-micturition contractions (relative value, before administration = 100) (spinal cord-injured rats; 0.1 mg/kg p.o., after 3 hrs.): 33.3 ± 6.3 % | micturition contractions (relative value, before administration = 100) (spinal cord-injured rats; 0.1 mg/kg p.o., after 5 hrs.): 112.4 ± 7.0% | pre-micturition contractions (relative value, before administration = 100) (spinal cord-injured rats; 0.1 mg/kg p.o., after 5 hrs.): 28.5 ± 6.2 % | micturition contractions (relative value, before administration = 100) ([1]; 0.001 mg/kg p.o., after 1 hr.): 99.3 ± 2.3% | pre-micturition contractions (relative value, before administration = 100) ([1]; 0.001 mg/kg p.o., after 1 hr.): 105.9 ± 7.8% | micturition contractions (relative value, before administration = 100) ([1]; 0.001 mg/kg p.o., after 3 hrs.): 101.5 ± 3.3% | pre-micturition contractions (relative value, before administration = 100) ([1]; 0.001 mg/kg p.o., after 3 hrs.): 100.3 ± 10.0% | micturition contractions (relative value, before administration = 100) ([1]; 0.001 mg/kg p.o., after 5 hrs.): 98.7 ± 5.2% | pre-micturition contractions (relative value, before administration = 100) ([1]; 0.001 mg/kg p.o., after 5 hrs.): 104.2 ± 10.2% | micturition contractions (relative value, before administration = 100) ([1]; 0.01 mg/kg p.o., after 1 hr.): 99.6 ± 1.2% | pre-micturition contractions (relative value, before administration = 100) ([1]; 0.01 mg/kg p.o., after 1 hr.): 59.5 ± 4.1 % | micturition contractions (relative value, before administration = 100) ([1]; 0.01 mg/kg p.o., after 3 hrs.): 92.6 ± 3.2% | pre-micturition contractions (relative value, before administration = 100) ([1]; 0.01 mg/kg p.o., after 3 hrs.): 69.5 ± 4.4 % | micturition contractions (relative value, before administration = 100) ([1]; 0.01 mg/kg p.o., after 5 hrs.): 90.1 ± 4.3% | pre-micturition contractions (relative value, before administration = 100) ([1]; 0.01 mg/kg p.o., after 5 hrs.): 67.8 ± 5.5 % | micturition contractions (relative value, before administration = 100) ([1]; 0.1 mg/kg p.o., after 1 hr.): 106.2 ± 9.2% | pre-micturition contractions (relative value, before administration = 100) ([1]; 0.1 mg/kg p.o., after 1 hr.): 55.8 ± 8.2 % | micturition contractions (relative value, before administration = 100) ([1]; 0.1 mg/kg p.o., after 3 hrs.): 105.2 ± 9.6% | pre-micturition contractions (relative value, before administration = 100) ([1]; 0.1 mg/kg p.o., after 3 hrs.): 66.2 ± 4.7 % | micturition contractions (relative value, before administration = 100) ([1]; 0.1 mg/kg p.o., after 5 hrs.): 100.1 ± 8.6% | pre-micturition contractions (relative value, before administration = 100) ([1]; 0.1 mg/kg p.o., after 5 hrs.): 69.2 ± 7.4 % | minimum lethal dose (MLD) (dd male mice): > 1000 mg/kg
